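These data come from cells grown in 96-well plates and exposed to compound for 48 hours at five concentrations. The concentration for full growth arrest is given as TGI.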 Where a SMILES comes first, the peptide text is derived from it. [ ]: non-standard residue; d: D form. The star is where a group is joined. ξ: configuration not given here. ξNMeF = CNC(Cc1ccccc1)C(=O)O; NMeV = CN[C@H](C(=O)O)C(C)C; Boc = CC(C)(C)OC(=O)*; OBn = c1ccc(CO*)cc1
Experiments:
Experiment in all cases: inhibition of tumour cell growth, NCI panel, 48 h
[1] = tested on: A549 NSCLC
[2] = tested on: EKVX NSCLC
[3] = tested on: HOP-18 NSCLC
[4] = tested on: HT29 colon
[5] = tested on: KM12 colon
[6] = tested on: M14 melanoma
[7] = tested on: MALME-3M melanoma
[8] = tested on: NCI-H23 lung
[9] = tested on: SK-MEL-2 melanoma
[10] = tested on: SK-OV-3 ovarian
[11] = tested on: SR leukemia
[12] = tested on: TK-10 renal
[13] = tested on: UACC-257 melanoma
[14] = tested on: DU-145 prostate
[15] = tested on: MDA-N
[16] = tested on: PC-3 prostate

| SMILES | TGI [1] | TGI [2] | TGI [3] | TGI [4] | TGI [5] | TGI [6] | TGI [7] | TGI [8] | TGI [9] | TGI [10] | TGI [11] | TGI [12] | TGI [13] | TGI [14] | TGI [15] | TGI [16] |
| --- | --- | --- | --- | --- | --- | --- | --- | --- | --- | --- | --- | --- | --- | --- | --- | --- |
| COc1ccc2c(c1)CCc1c-2[nH]c2cc3c(cc2c1=O)OCO3 | > 100 µM | > 100 µM | > 100 µM | > 100 µM | > 100 µM | > 100 µM | > 100 µM | > 100 µM | > 100 µM | > 100 µM | > 100 µM | > 100 µM | – | – | – | – |
| Nc1nc(SCC(=O)c2ccccc2)c2[nH]cnc2n1 | > 100 µM | – | > 100 µM | > 100 µM | > 100 µM | > 100 µM | > 100 µM | > 100 µM | > 100 µM | > 100 µM | > 100 µM | > 100 µM | > 100 µM | – | – | – |
| COc1cccc(NC(=O)CSc2nnc(Cc3ccccc3)o2)c1 | > 100 µM | – | > 100 µM | > 100 µM | > 100 µM | > 100 µM | > 100 µM | > 100 µM | > 100 µM | > 100 µM | – | > 100 µM | > 100 µM | – | – | – |
| O=C1c2ccccc2C(=O)N1CCCOCc1c[nH]c(=O)[nH]c1=O | > 100 µM | > 100 µM | > 100 µM | > 100 µM | > 100 µM | > 100 µM | > 100 µM | > 100 µM | > 100 µM | > 100 µM | – | > 100 µM | > 100 µM | – | – | – |
| CC(C)[C@@H](C(=O)N(C)[C@H](C(=O)N1CCC[C@H]1C(=O)OCc1ccccc1)C(C)C)N(C)C(=O)C(Cc1ccccc1)N(C)C(=O)[C@H](NC(=O)OC(C)(C)C)C(C)C (some centres not stated) (Boc-[dV][ξNMeF][NMeV][NMeV]P-OBn) | > 31.6 µM | > 31.6 µM | > 100 µM | > 31.6 µM | – | > 100 µM | > 100 µM | > 100 µM | > 31.6 µM | > 31.6 µM | > 31.6 µM | > 31.6 µM | > 31.6 µM | – | – | – |
| Cc1ccc(Nc2cccc3c2C(=O)c2cccc(Nc4ccc(C)cc4S(=O)(=O)O)c2C3=O)c(S(=O)(=O)O)c1 | > 100 µM | > 100 µM | > 100 µM | – | > 100 µM | > 100 µM | > 100 µM | – | > 100 µM | > 100 µM | > 100 µM | > 100 µM | > 100 µM | – | – | – |
| CNC(=O)C(C)Oc1ccc(OCC2CCCCC2)cc1 (configuration not stated) | > 100 µM | – | > 100 µM | > 100 µM | > 100 µM | > 100 µM | > 100 µM | > 100 µM | > 100 µM | > 100 µM | – | > 100 µM | > 100 µM | – | – | – |
| CC1(C)c2ccccc2N2C(c3ccccc3)=NOC21C (configuration not stated) | > 100 µM | > 100 µM | > 100 µM | > 100 µM | > 100 µM | > 100 µM | > 100 µM | > 100 µM | > 100 µM | > 100 µM | > 100 µM | > 100 µM | > 100 µM | – | – | – |
| CN(C)NC1=C([N+](=O)[O-])C=NN(c2ccccc2)C1 | 3.87 µM | 3.52 µM | 3.25 µM | 3.66 µM | 11.9 µM | 3.23 µM | 3.63 µM | 3.42 µM | 3.21 µM | 3.46 µM | 2.51 µM | 11.8 µM | 3.57 µM | – | – | – |
| CN(C)[C@@H]1C(=O)C(C(=O)NCNc2nc3n[nH]nc3c(=O)[nH]2)=C(O)[C@@]2(O)C(=O)C3=C(O)c4c(O)cccc4[C@@](C)(O)[C@H]3C[C@@H]12 | > 100 µM | > 69.5 µM | > 100 µM | > 100 µM | > 100 µM | 15.8 µM | 13.1 µM | > 100 µM | 3.09 µM | 8.25 µM | > 19.5 µM | > 80.5 µM | > 87.8 µM | 22.5 µM | 14.5 µM | > 100 µM |
| CC1=NN(c2ccc(S(=O)(=O)O)cc2)C2(C1)C(Cl)C(=O)N2c1nc2ccccc2s1 (configuration not stated) | > 100 µM | > 100 µM | – | > 100 µM | > 100 µM | > 100 µM | > 100 µM | > 100 µM | > 100 µM | > 100 µM | > 100 µM | > 100 µM | > 100 µM | > 100 µM | > 100 µM | > 100 µM |
| CCCCC(=O)/C=c1/cc(C)[nH]c2cccc3cnn1c32 | > 100 µM | > 100 µM | – | > 100 µM | > 100 µM | > 100 µM | > 100 µM | > 100 µM | > 100 µM | > 100 µM | > 100 µM | > 100 µM | > 100 µM | > 100 µM | > 100 µM | > 100 µM |
| CCC12C=CCN(CCc3c([nH]c4ccccc34)/C=C\1)C2 (configuration not stated) | > 100 µM | > 100 µM | > 100 µM | > 100 µM | > 100 µM | > 100 µM | > 100 µM | > 100 µM | > 100 µM | – | > 100 µM | – | > 100 µM | – | – | – |
| CSC1=NN(C(C)=O)C(C(OC(C)=O)C(OC(C)=O)C(OC(C)=O)C(COC(C)=O)OC(C)=O)S1 (configuration not stated) | > 100 µM | > 100 µM | – | > 100 µM | > 100 µM | > 100 µM | > 100 µM | > 100 µM | > 100 µM | > 100 µM | > 100 µM | > 100 µM | > 100 µM | > 100 µM | > 100 µM | > 100 µM |
| CN(c1ccccc1)c1cc2ccccc2nn1 | > 100 µM | > 100 µM | > 100 µM | > 100 µM | > 100 µM | > 100 µM | > 100 µM | > 100 µM | > 100 µM | > 100 µM | > 100 µM | > 100 µM | > 100 µM | – | – | – |
| Cn1nnc2c(C(N)=S)ncn2c1=O | > 100 µM | > 100 µM | – | > 100 µM | > 100 µM | > 100 µM | > 100 µM | > 100 µM | > 100 µM | > 100 µM | > 100 µM | > 100 µM | > 100 µM | > 100 µM | > 100 µM | > 100 µM |
| C=C1CN=C(Nc2ccc(Cl)cc2)S1 | > 100 µM | > 100 µM | – | > 100 µM | > 100 µM | > 100 µM | > 100 µM | > 100 µM | > 100 µM | > 100 µM | > 100 µM | > 100 µM | > 100 µM | > 100 µM | > 100 µM | > 100 µM |

From PubChem BioAssay (NCI)
